Results from patent US8207174B2, “Aryloxypropanolamines, methods of preparation therof and use of aryloxypropanolamines as medicaments” (4SC AG, priority 2007, dated 2012).

Tests used:
[1] = biological target: T1, human recombinant adrenergic β3 receptor (Homo sapiens, UniProt P13945); experiment: Cyclic AMP accumulation assay (HTRF), agonist mode; format: cell-based; conditions: agonistic activity at β3-adrenoceptor, CHO-K1 β3 cells, cAMP
T1 construct: host or cells: CHO-K1
Method: (Cyclic Amp Accumulation Assay)
Functional response of cells (agonistic or antagonistic) to the test compounds was tested by measurement of cyclic AMP formation. Therefore cyclic AMP was quantitatively determined by HTRF® (Homogeneous Time-Resolved Fluorescence) technology (Cisbio International) using a stable cell line CHO-K1 β3 expressing the human recombinant adrenergic β3 receptor (Euroscreen).
The CHO-K1 β3 cell line was maintained in Ham's F12 medium containing 10% fetal bovine serum, 400 μg/ml geneticin (G418), 100 U/mL penicillin and 100 μg/mL streptomycin (all PAA) at 37° C. and 5% CO2. Cells in mid-log phase, grown in media without antibiotics during 18 h prior to the experiment, were detached by gentle flushing with 2 ml PBS-EDTA pH 7.5 (Cambrex) and resuspended in 8 mL of medium without antibiotics. Cells were then counted, centrifuged in a 30 mL PP tube (Corning) at 2000 rpm for 1 min and resuspended in HBSS/20 mM HEPES/0.05% BSA buffer (all PAA) including 1 mM IBMX (Sigma). Cells were then dispensed at 3.2×10^5−3.6×10^5 cells/well in black 96-half well microtiter plates (Corning). After addition of the test compounds for dose response curves the plates were incubated for 10 min at room temperature.
cAMP HTRF® Kit reagents were then added as recommended by the manufacturer and plates were sealed with plate sealer. After 1 hour of incubation the plates were read in a Tecan Ultra Reader using the “multilabeling” option of Tecan Xfluor4 software with the following parameters, excitation filter 320 nm, mirror dichroic2, lag time 150 μs, integration time 500 μs, number of flashes 10, optimal gain and z-position. For measurement 1 an emission filter at 620 nm and for measurement 2 an emission filter at 665 nm was chosen.
EC50 value calculation for the agonist assay and IC50 value calculation for the antagonist assay, respectively, were performed with the MS Excel Solver function based on a four-parameter fit.

[2] = test system: β3 over β1- and β2-adrenoceptors; experiment: Overall selectivity A×B from radioligand binding (β1, β2, β3) and functional β3 assay; design: species or system human; conditions: A=Ki(β1)/Ki(β3); B=Ki(β2)/EC50(β3); overall = A multiplied by B
Method: Selectivity for β3 over the other two adrenoceptors was thus defined as:
A) selectivity factor for β3 over β1=Ki(β1)/Ki(β3);
B) selectivity factor for β3 over β2=Ki(β2)/EC50(β3);
overall selectivity was determined as factor A) multiplied by factor B)
Membrane preparations containing human β1-, β2- or β3-adrenergic receptors were purchased from Euroscreen.
Determination of IC50 deployed a competition binding experiment where an unlabeled test compound competes with the radioligand for the receptor's binding site.
For competition binding experiments 0.1 μg/μL β3 membranes were pre-incubated with the respective compounds at r.t. for 10 minutes. The binding buffer consisted of 25 mM Hepes, 1 mM EDTA, 0.5% BSA pH 7.4. All incubation steps were done in a 96 well Masterblock PP/1 mL (Greiner), the total assay volume was 100 μL.
The reaction mixtures were transferred to a 96 well UnifilterGF/B filter plate (Millipore), pre-soaked in 0.5% BSA, using the PerkinElmer filtermate. Each well was washed with 8×1 mL ice cold binding buffer supplemented with 0.5M NaCl. The GF/B filter plates were dried for 5 min on the filtermate. To each well, 50 μL OptiPhase scintillation cocktail (PerkinElmer) was added and incubated at r.t. for 10 min.
Bound radioactivity was quantified in a Wallac-Microbeta plate reader (PerkinElmer). Each well was counted for 2 min in top-count mode.
For competition binding experiments 0.25 μg/well β1 or 0.5 μg/well β2 membranes were pre-incubated with the respective compounds at r.t. for 10 minutes. […] All incubation steps were done in a 96 well Masterblock PP/1 mL (Greiner), the total assay volume was 250 μL.
The reaction mixtures were transferred to a 96 well UnifilterGF/B filter plate (Millipore), pre-soaked in 0.5% PEI, using the PerkinElmer filtermate, Each well was wash with 8×1 mL ice cold binding buffer. The GF/B filter plates were dried for 5 min on the filtermate. To each well 50 μL OptiPhase scintillation cocktail (PerkinElmer) was added and incubated at r.t. for 10 min.
Bound radioactivity was quantified in a Wallac-Microbeta plate reader (PerkinElmer). Each well was counted for 2 min in top-count mode

T1 sequence (P13945 whole entry): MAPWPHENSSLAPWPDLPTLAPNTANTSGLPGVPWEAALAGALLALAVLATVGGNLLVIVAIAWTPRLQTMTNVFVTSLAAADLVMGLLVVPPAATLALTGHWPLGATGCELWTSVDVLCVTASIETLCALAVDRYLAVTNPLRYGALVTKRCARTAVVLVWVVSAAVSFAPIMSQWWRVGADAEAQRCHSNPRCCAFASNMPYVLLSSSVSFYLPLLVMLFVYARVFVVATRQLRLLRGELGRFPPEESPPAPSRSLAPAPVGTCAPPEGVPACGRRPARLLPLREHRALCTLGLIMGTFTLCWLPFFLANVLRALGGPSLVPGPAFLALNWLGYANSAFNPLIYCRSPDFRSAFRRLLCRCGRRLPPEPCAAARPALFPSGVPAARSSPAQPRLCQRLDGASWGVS

Row | SMILES | EC50 [1] | selectivity [A x B] [2]
1 | Cc1nc(N2CCC(NCC(O)COc3ccc(O)cc3)CC2)c2ccsc2n1 (stereo not drawn) [Example 5, 4-(2-hydroxy-3-(1-(2-methylthieno[2,3-d]pyrimidin-4-yl)piperidin-4-ylamino)propoxy)phenol] | 11 to 100 nM | ++ (A×B=101-1000)
2 | Cc1cc(C)nc(N2CCC(NCC(O)COc3ccc(O)cc3)CC2)n1 (stereo not drawn) [Example 8, 4-(3-(1-(4,6-dimethylpyrimidin-2-yl)piperidin-4-ylamino)-2-hydroxypropoxy)phenol] | 11 to 100 nM | 0 (A×B<10)
3 | CN(CC(O)COc1ccc(O)cc1)C1CCN(c2ncnc3scc(-c4ccc(F)cc4)c23)CC1 (stereo not drawn) [Example 11, 4-(3-((1-(5-(4-fluorophenyl)thieno[2,3-d]pyrimidin-4-yl)piperidin-4-yl)(methyl)amino)-2-hydroxypropoxy)phenol] | > 100 nM | 0 (A×B<10)
4 | CCOC(=O)c1cc(OCC(O)CNC2CCN(c3ncnc4scc(-c5ccccc5)c34)CC2)ccc1O (stereo not drawn) [Example 12] | > 100 nM | 0 (A×B<10)
5 | OCc1cc(OCC(O)CNC2CCN(C3=NCNc4scc(-c5ccccc5)c43)CC2)ccc1O (stereo not drawn) [Example 14, 4-(2-hydroxy-3-(1-(5-phenyl-1,2-dihydrothieno[2,3-d]pyrimidin-4-yl)piperidin-4-ylamino)propoxy)-2-(hydroxymethyl)phenol] | 0.01 to 0.99 nM | +++ (A×B>1000)
6 | CCOC(=O)c1cc(OCC(O)CNC2CCN(c3ncnc4scc(C)c34)CC2)ccc1O (stereo not drawn) [Example 17, ethyl 2-hydroxy-5-(2-hydroxy-3-(1-(5-methylthieno[2,3-d]pyrimidin-4-yl)piperidin-4-ylamino)propoxy)benzoate] | > 100 nM | 0 (A×B<10)
7 | Cc1nc(N2CCC(NCC(O)COc3ccc(O)c(CO)c3)CC2)c2ccsc2n1 (stereo not drawn) [Example 19, 4-(2-hydroxy-3-(1-(2-methylthieno[2,3-d]pyrimidin-4-yl)piperidin-4-ylamino)propoxy)-2-(hydroxymethyl)phenol] | 1 to 10 nM | +++ (A×B>1000)
8 | CCOC(=O)c1cc(OCC(O)CNC2CCN(c3ncnc4sc(-c5ccccc5)c(C)c34)CC2)ccc1O (stereo not drawn) [Example 20, ethyl 2-hydroxy-5-(2-hydroxy-3-(1-(5-methyl-6-phenylthieno[2,3-d]pyrimidin-4-yl)piperidin-4-ylamino)propoxy)benzoate] | > 100 nM | 0 (A×B<10)
9 | CCOC(=O)c1cc(OCC(O)CNC2CCN(c3ncnc4ccsc34)CC2)ccc1O (stereo not drawn) [Example 22, ethyl 2-hydroxy-5-(2-hydroxy-3-(1-(thieno[3,2-d]pyrimidin-4-yl)piperidin-4-ylamino)propoxy)benzoate] | > 100 nM | 0 (A×B<10)
10 | Cc1cc(C)nc(N2CCC(NCC(O)COc3ccc(O)c(CO)c3)CC2)n1 (stereo not drawn) [Example 24, 4-(3-(1-(4,6-dimethylpyrimidin-2-yl)piperidin-4-ylamino)-2-hydroxypropoxy)-2-(hydroxymethyl)phenol] | 1 to 10 nM | +++ (A×B>1000)
11 | CCOC(=O)c1cc(OCC(O)CNC2CCN(c3ncnc4scc(-c5cccs5)c34)CC2)ccc1O (stereo not drawn) [Example 25, ethyl 2-hydroxy-5-(2-hydroxy-3-(1-(5-(thiophen-2-yl)thieno[2,3-d]pyrimidin-4-yl)piperidin-4-ylamino)propoxy)benzoate] | > 100 nM | 0 (A×B<10)
12 | COC(=O)c1ccc(OCC(O)CNC2CCN(c3ncnc4scc(-c5ccccc5)c34)CC2)cc1O (stereo not drawn) [Example 28, methyl 2-hydroxy-4-(2-hydroxy-3-(1-(5-phenylthieno[2,3-d]pyrimidin-4-yl)piperidin-4-ylamino)propoxy)benzoate] | > 100 nM | 0 (A×B<10)
13 | CCOC(=O)c1cc(O)ccc1OCC(O)CNC1CCN(c2ncnc3scc(-c4ccccc4)c23)CC1 (stereo not drawn) [Example 32, ethyl 5-hydroxy-2-(2-hydroxy-3-(1-(5-phenylthieno[2,3-d]pyrimidin-4-yl)piperidin-4-ylamino)propoxy)benzoate] | 1 to 10 nM | + (A×B=10-100)
14 | COC(=O)c1ccc(O)cc1OCC(O)CNC1CCN(c2ncnc3scc(-c4ccccc4)c23)CC1 (stereo not drawn) [Example 34, methyl 4-hydroxy-2-(2-hydroxy-3-(1-(5-phenylthieno[2,3-d]pyrimidin-4-yl)piperidin-4-ylamino)propoxy)benzoate] | > 100 nM | 0 (A×B<10)
15 | Cc1csc2ncnc(N3CCC(NCC(O)COc4cccc(CO)c4)CC3)c12 (stereo not drawn) [Example 37, 1-(3-(hydroxymethyl)phenoxy)-3-(1-(5-methylthieno[2,3-d]pyrimidin-4-yl)piperidin-4-ylamino)propan-2-ol] | 11 to 100 nM | 0 (A×B<10)
16 | Cc1nc(N2CCC(NCC(O)COc3cccc(CO)c3)CC2)c2ccsc2n1 (stereo not drawn) [Example 38, 1-(3-(hydroxymethyl)phenoxy)-3-(1-(2-methylthieno[2,3-d]pyrimidin-4-yl)piperidin-4-ylamino)propan-2-ol] | > 100 nM | 0 (A×B<10)
17 | Cc1c(-c2ccccc2)sc2ncnc(N3CCC(NCC(O)COc4cccc(CO)c4)CC3)c12 (stereo not drawn) [Example 39, 1-(3-(hydroxymethyl)phenoxy)-3-(1-(5-methyl-6-phenylthieno[2,3-d]pyrimidin-4-yl)piperidin-4-ylamino)propan-2-ol] | > 100 nM | 0 (A×B<10)
18 | OCc1cccc(OCC(O)CNC2CCN(c3ncnc4scc(-c5ccc(F)cc5)c34)CC2)c1 (stereo not drawn) [Example 40, 1-(1-(5-(4-fluorophenyl)thieno[2,3-d]pyrimidin-4-yl)piperidin-4-ylamino)-3-(3-(hydroxymethyl)phenoxy)propan-2-ol] | 11 to 100 nM | + (A×B=10-100)
19 | CN(CC(O)COc1cccc(CO)c1)C1CCN(c2ncnc3scc(-c4ccccc4)c23)CC1 (stereo not drawn) [Example 41, 1-(3-(hydroxymethyl)phenoxy)-3-(methyl(1-(5-phenylthieno[2,3-d]pyrimidin-4-yl)piperidin-4-yl)amino)propan-2-ol] | > 100 nM | + (A×B=10-100)
20 | Cc1c(-c2ccccc2)sc2ncnc(N3CCC(N(C)CC(O)COc4cccc(CO)c4)CC3)c12 (stereo not drawn) [Example 42, 1-(3-(hydroxymethyl)phenoxy)-3-(methyl(1-(5-methyl-6-phenylthieno[2,3-d]pyrimidin-4-yl)piperidin-4-yl)amino)propan-2-ol] | > 100 nM | 0 (A×B<10)
21 | OCc1ccc(OCC(O)CNC2CCN(c3ncnc4scc(-c5ccc(F)cc5)c34)CC2)cc1 (stereo not drawn) [Example 44, 1-(1-(5-(4-fluorophenyl)thieno[2,3-d]pyrimidin-4-yl)piperidin-4-ylamino)-3-(4-(hydroxymethyl)phenoxy)propan-2-ol] | > 100 nM | + (A×B=10-100)
